Measured values as given in patent publication US20090041839A1, “PHARMACEUTICAL COMPOSITIONS FOR THE TREATMENT OF PAIN” (priority 2007, published 2009).
Like-named read-outs stand apart in the source and are kept apart here.

What was measured:
[1] = Multiple escalating dose pharmacokinetic study of T-62 soft gelatin capsules (Example 12); assay type: in vivo; conditions: both sexes, human, plasma, healthy adults; for Tmax: median; for AUC(0-inf) / Cmax / AUC: po, arithmetic mean (SD); for AUC: τ = 12 hours, read-out: AUC0-τ
Protocol: A single-center, randomized, double-blind, parallel-group, placebo-controlled study of the safety, tolerability, and pharmacokinetics of escalating multiple doses of a T-62 composition in soft gelatin capsules (oral dosage form 4) in healthy adult male and female subjects was carried out.
Three cohorts of 12 subjects were enrolled for the study (19-38 years of age). Subjects in each cohort were randomly assigned in a 3:1 allocation to receive multiple doses of either T-62 (n=9) or placebo (n=3). Subjects in each cohort received study medication for a total of 6 days. Subjects in the first cohort received multiple doses of 100 mg T-62 or placebo. Subsequent cohorts of 12 new subjects each received multiple doses of placebo or a higher dose level of T-62 (i.e., 2×100 mg for the second cohort and 4×100 mg for the third cohort).
Each subject in each dosing cohort completed Screening, Baseline, Treatment, and Follow-Up Phases. The Screening Phase was conducted on an outpatient basis within 30 days, but no less than 3 days, prior to the start of the Baseline Phase. The Baseline Phase consisted of clinical research unit (CRU) admission and final qualification assessments. The Treatment Phase comprised of dosing, post-treatment safety assessments, and blood collection.
On the morning of Day 1, subjects received a single dose of study drug; no additional study drug were administered on Day 1. Twice-daily dosing (one morning dose and one evening dose) commenced on Day 2 and continue through Day 5. Subjects received a final dose of study drug on the morning of Day 6. Once subjects in each cohort had completed dosing, an additional 48 hours of blood sampling was conducted following the final dose to characterize the pharmacokinetics of T-62 at steady state. Subjects were discharged at the end of the 48-hour blood sampling (Day 8). The Follow-Up Phase occurred 2 days (but no more than 4 days) after discharge from the CRU.
For all cohorts, on Day 2 through Day 5, subjects were not allowed to eat any food beginning 1 hour prior to the morning and evening doses of study drug and until 2 hours after study drug administration. On Day 1 and Day 6, subjects fasted for a minimum of 9 hours pre-dose to 4 hours post-dose.
Blood samples for determining plasma concentrations of T-62 and pharmacokinetic parameters were obtained immediately prior to dosing on Day 1 and at regular intervals post-dosing over 12 hours in each treatment cohort. On Days 2-5, blood samples for pharmacokinetic analysis were collected each day prior to the morning and evening doses of study drug. Once subjects in each cohort had completed dosing on Day 6, an additional 48 hours of plasma sampling were conducted following the final dose of study drug to characterize the pharmacokinetics of T-62 at steady state.

[2] = tested on: adenosine A1 receptors; conditions: Li et al. 2003, U.S. Pat. No. 6,248,774 and No. 6,489,356, cited from earlier work
[3] = 200 mg, Day 1, single dose 2 × 100 mg (oral dosage form 4), n = 9
[4] = 400 mg, Day 1, single dose 4 × 100 mg (oral dosage form 4), n = 9
[5] = 100 mg, Day 1, single dose 100 mg (oral dosage form 4), n = 8
[6] = 100 mg, Steady state (Day 6), 100 mg BID (oral dosage form 4), n = 8
[7] = 200 mg, Steady state (Day 6), 2 × 100 mg BID (oral dosage form 4), n = 9
[8] = 400 mg, Steady state (Day 6), 4 × 100 mg BID (oral dosage form 4), n = 9

Tmax [1, 3]: 1 h | Tmax [1, 4]: 2 h | AUC(0-inf) [1, 5]: 96.9 ng·h/mL | Cmax [1, 5]: 28.8 ng/mL | AUC [1, 5]: 89.5 ng·h/mL | AUC(0-inf) [1, 6]: 407 ng·h/mL | Cmax [1, 6]: 55.9 ng/mL | AUC [1, 6]: 197 ng·h/mL | AUC(0-inf) [1, 3]: 254 ng·h/mL | Cmax [1, 3]: 60.7 ng/mL | AUC [1, 3]: 211 ng·h/mL | AUC(0-inf) [1, 7]: 995 ng·h/mL | Cmax [1, 7]: 107 ng/mL | AUC [1, 7]: 450 ng·h/mL | AUC(0-inf) [1, 4]: 496 ng·h/mL | Cmax [1, 4]: 71.4 ng/mL | AUC [1, 4]: 399 ng·h/mL | AUC(0-inf) [1, 8]: 2210 ng·h/mL | Cmax [1, 8]: 179 ng/mL | AUC [1, 8]: 958 ng·h/mL | Tmax ([1]; Day 1, single dose 100 mg (oral dosage form 4), n = 8): 1 h
Structure (SMILES): Nc1sc2c(c1C(=O)c1ccc(Cl)cc1)CCCC2 [T-62, (2-amino-4,5,6,7-tetrahydrobenzo[b]thiophen-3-yl)(4-chlorophenyl)-methanone]
Adverse side effects ([2]; compared with administration of adenosine): devoid of the adverse side effects associated with administration of adenosine | Effect on inflammatory and neuropathic pain ([2]; orally effective): reduce inflammatory and neuropathic pain
